# Reference: patent publication US10641771B2, “Protein target complex” (HQ Medical Netherlands B.V., priority 2012, dated 2020)
# Tests used:
# intracellular proteins = experiment: Identification of intracellular proteins that bind HQ5 (lysate incubated with dye); type: binding; details: lysate incubated with HQ5 and CW800
# Procedure: FIG. 12 relates to identification of intracellular proteins that bind HQ5. In order to try to identify the protein to which the HQ-dyes bind Lysate is (after pre-treatment) incubated with HQ5 and CW800. Exact protocol and technique not specified. […] A specific HQ5-binding protein has a molecular weight of approx. 40 kD.
# 4T1-Luc cells = experiment: Dry ice assay: binding to dead cells or uptake by living cells; type: cell-based, mouse; details: dry-ice killed 4T1-Luc cells in the center of the wells, 15 min at 37° C.
# Procedure: 4T1-Luc cells were seeded onto individual wells from a 12-well cell culture plate and allowed to grow to confluence in RPMI media supplemented with 10% fetal bovine serum. 4T1-luc2 mouse breast cancer cells were used as the adherence of these cells to the bottom of the culture well remains strong after dry-ice treatment. To initiate cryo-induced cell death, media was discarded and dry-ice was applied to the bottom center of each individual well for 15 sec. Subsequently, fresh medium with different concentrations of the first compound of the invention were added and cells were incubated at 37° C. for 15 min. After incubation, the media were discarded and the cells were washed twice with serum free medium and 0.5 ml fresh RPMI was added to each well. Cells were then visualized using a Licor Odyssey equipped with 700 and 800 nm diode laser. Luciferin ([…]) was also added to each well and fluorescence and bioluminescence images were acquired using an IVIS Spectrum (fluorescence: excitation filter: 710 nm, emission filter: 820 nm, exposure time: 90 s, bin: 8, f/stop: 2, field of view: 12.9 cm) (bioluminescence: open filter, exposure time: 30 s, bin: 8, f/stop: 1, field of view: 12.9 cm). Some culture wells were also stained for 15 min with Trypan Blue (0.2% in culture medium) to confirm cell death.
# injured tissues = details: Prajapati et al., Mol Imaging 2009; cited from earlier work
# 4T1 cells = experiment: Confocal microscopy of Gambogic acid treated 4T1 cells; type: cell-based, mouse
# From the text: Gambogic acid kills cells leading to membrane disruption. […] Annexin-V-FITC specifically binds to phosphatidyl serine (PS) expressed on the outside of the cell membrane of apoptotic and necrotic cells.
# Annexin V, however, can next to late apoptotic and necrotic cells also stain cells in an early stage of apoptosis.
molecule,measurement,setting,value
CC1(C)C(/C=C/C2=C(Oc3ccc(S(=O)(=O)O)cc3)C(=C/C=C3/N(CCCCS(=O)(=O)O)c4ccc(S(=O)(=O)[O-])cc4C3(C)C)/CCC2)=[N+](CCCCCC(=O)O)c2ccc(S(=O)(=O)O)cc21 [CW800],"proteins bound, HQ5 compared with CW800",intracellular proteins,share some but also have different proteins they bind with
same,binding to dead cells,4T1-Luc cells,specifically and dose-dependently bind to dead cells
CC1(C)C(=CC=C2CCCC(C=CC3=[N+](CCCCS(=O)(=O)[O-])c4ccc5ccccc5c4C3(C)C)=C2Cl)N(CCCCS(=O)(=O)[O-])c2ccc3ccccc3c21.[Na+] [IR-820],blood pool behaviour,injured tissues,is a blood pool agent that just simply leaks out of blood vessels after disruption of the vessels
"Annexin V: binds phosphatidyl serine on the outside of the membrane of apoptotic and necrotic cells (protein, UniProt P08758 2-320, looked up, FITC label) Annexin A5: AQVLRGTVTDFPGFDERADAETLRKAMKGLGTDEESILTLLTSRSNAQRQEISAAFKTLFGRDLLDDLKSELTGKFEKLIVALMKPSRLYDAYELKHALKGAGTNEKVLTEIIASRTPEELRAIKQVYEEEYGSSLEDDVVGDTSGYYQRMLVVLLQANRDPDAGIDEAQVEQDAQALFQAGELKWGTDEEKFITIFGTRSVSHLRKVFDKYMTISGFQIEETIDRETSGNLEQLLLAVVKSIRSIPAYLAETLYYAMKGAGTDDHTLIRVMVSRSEIDLFNIRKEFRKNFATSLYSMIKGDTSGDYKKALLLLCGEDD",number of cells stained,4T1 cells,stains a larger number of cells than both HQ5 and EtD
